Source: EP0442757A2, “Therapeutic nucleosides” (THE WELLCOME FOUNDATION LIMITED, priority 1990, dated 1991)

Assays:
Format in all cases: cell-based
[1] = tested on: HIV-1; test: PBL assay (P24 capsid antigen ELISA in human peripheral blood lymphocytes); conditions: human PBL's stimulated with IL2 and PHA, P24 ELISA after 4 days incubation at 37°C, several values per cell
Method: HIV assays were carried out in human peripheral blood lymphocytes (PBL's) prepared by fractionation of fresh human […] on Ficoll gradients as described by Hartmann H. et al. Aids Research and Human Retroviruses, 1988, 4 457-466. The isolated PBL's were stimulated with growth factors IL2 and PHA for 3 days before infection with HIV. Growth of virus was monitored, after 4 days incubation at 37°C, by quantitative ELISA assays of the capsid antigen, P24. A range of concentrations of compound of known molarity was incorporated into the medium. Yield of P24 at each concentration are expressed as a percentage of the control and a dose response curve is drawn. From this curve the 50% inhibitory concentration (IC50) is estimated.

[2] = tested on: HIV-1; test: HeLa-CD4+ cell assay (plaque reduction in HT4-6C cell monolayers); conditions: Human immunodeficiency virus 1, plaque reduction after 2-3 days, method calls the value ID50
Method: Susceptibility of HIV to inhibitors was determined by infection of HT4-6C cell monolayers as described by Larder, B.A., Chesebro, B. & Richman, D.D. Antimicrob. Agents Chemother. 1990 34, 436-441. Briefly cells were seeded in 24-well multiwells at 5x10⁴ cells per well and incubated overnight at 37°C in growth medium (DMEM10). Monolayers were infected with 100-200pfu of cell-free virus in 0.2ml of DMEM containing 5% fetal bovine serum plus antibiotics (DMEM5) and incubated for 1 hour at 37°C to allow virus adsorption. Following this time, 0.8ml of DMEM5 (with or without inhibitor) was added to each well and cultures were incubated at 37°C for 2-3 days. Monolayers were fixed with 10% formaldehyde solution in PBS and stained with 0.25% crystal violet in order to visualize virus plaques. Individual foci of multinucleated gian cells (plaques) were apparent using this staining procedure. ID₅₀ values were derived from plots of percent plaque reduction versus inhibitor concentration.

[3] = Cell toxicity, cell growth inhibition assay (MTT uptake); conditions: CCID-50: 50% inhibition of cell viability at 5 days; uninfected MT4 cells or vero cells (not stated which); read-out: TOX
Method: Cell toxicity was assessed in a cell growth inhibition assay on uninfected MT4 cells or on vero cells in a 96-well microtiter dish. Identical cell numbers of uninfected cells were exposed to different dilutions of drug and cell viability determined daily on replicate cultures using uptake of MTT. The concentration required for a 50% inhibition of cell viability at 5 days is termed CCID-50.

[4] = tested on: HIV-1; test: Antiviral MT4 assay (reversal of HIV cytopathic effect, MTT uptake); conditions: MTT uptake at fifth day post infection, several values per cell, read-out: IC50 vs HIV-1 (μM) MT-4 (converted)
Method: Antiviral activity against the Human Immunodeficiency Virus (HIV) was determined according to the method of Pauwels et al, J.Virol.Methods, 1988 20 309-321 by measuring the ability of the compound to reverse the cytopathic effect of HIV infection. This was determined by a quantitative assessment of cell growth monitored at the fifth day post infection by a tetrazolium dye (MTT) uptake test. Subconfluent (20-40,000 cells/well) human T lymphocyte cell line MT4 cells infected with HIV were grown in 96-well microtiter dishes and exposed to different dilutions of drug. After 5 days, the dye intake test was performed on drug treated cultures and on HIV infected and mock infected MT4 cells. Under the conditions of the test, HIV infection caused extensive cytopathic effect and prevented cell growth by >80%. The antiviral effect of a drug is reported as an IC-50, i.e. as the inhibitory concentration that would protect 50% of the cells from cell killing, measured as 50% of that cell growth determined for uninfected MT4 cell controls.

[5] = Human immunodeficiency virus 1, Lymphocyte, 96 h

| Structure (SMILES) | IC50 [1, 5] [µM] | IC50 [1] [µM] | IC50 [2] [µM] | CC50 at 120 h [3] [µM] | IC50 ([4]; Human immunodeficiency virus 1, MT4, MT4 cells infected with HIV) [µM] | IC50 ([4]; MT4 cells infected with HIV) [µM] |
| --- | --- | --- | --- | --- | --- | --- |
| CCOCc1cn([C@H]2C[C@H](F)[C@@H](CO)O2)c(=O)[nH]c1=O [2′,3′-Dideoxy-5-ethoxymethyl-3′-fluorouridine] | 1.52 | 1.63 | 6.3 | > 200 | – | – |
| COCc1cn([C@H]2C[C@H](F)[C@@H](CO)O2)c(=O)[nH]c1=O [2′,3′-Dideoxy-3′-fluoro-5-methoxymethyluridine] | 1.89 | – | 11.9 | > 500 | 8.4 | 6.4 |
| CSCc1cn([C@H]2C[C@H](F)[C@@H](CO)O2)c(=O)[nH]c1=O [2′,3′-Dideoxy-3′-fluoro-5-methylthiomethyluridine] | – | – | 4.2 | > 200 | – | – |
